The values below come from ChEMBL document CHEMBL1125324, “Development of a novel class of cyclic hexapeptide oxytocin antagonists based on a natural product” (J Med Chem, 1992).

One test deals with Vasopressin V1a receptor (Rattus norvegicus, UniProt P30560). The test is described as follows: Concentration required to displace 50% of [3H]arginine vasopressin from rat liver arginine vasopressin 1A (AVP-V1a) site.
The target of the next test is Vasopressin V2 receptor (Rattus norvegicus, UniProt Q00788). Kind of test: Inhibition of [3H]arginine vasopressin binding to AVP-V2 site in rat kidney medulla. The class given is tissue-based.
Sequence of Vasopressin V2 receptor (Q00788 whole entry): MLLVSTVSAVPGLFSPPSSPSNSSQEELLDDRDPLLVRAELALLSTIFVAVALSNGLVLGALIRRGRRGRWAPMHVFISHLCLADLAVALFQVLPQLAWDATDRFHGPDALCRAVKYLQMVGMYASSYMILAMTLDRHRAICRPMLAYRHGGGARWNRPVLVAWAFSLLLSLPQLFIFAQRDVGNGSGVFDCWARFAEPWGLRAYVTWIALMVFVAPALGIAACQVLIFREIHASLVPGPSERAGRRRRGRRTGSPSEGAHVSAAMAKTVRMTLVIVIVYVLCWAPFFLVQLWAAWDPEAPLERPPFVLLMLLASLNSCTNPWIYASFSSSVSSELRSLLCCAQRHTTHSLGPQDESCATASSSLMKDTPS
The next test deals with T1, Oxytocin receptor (Rattus norvegicus, UniProt P70536).
T1 sequence (P70536 whole entry): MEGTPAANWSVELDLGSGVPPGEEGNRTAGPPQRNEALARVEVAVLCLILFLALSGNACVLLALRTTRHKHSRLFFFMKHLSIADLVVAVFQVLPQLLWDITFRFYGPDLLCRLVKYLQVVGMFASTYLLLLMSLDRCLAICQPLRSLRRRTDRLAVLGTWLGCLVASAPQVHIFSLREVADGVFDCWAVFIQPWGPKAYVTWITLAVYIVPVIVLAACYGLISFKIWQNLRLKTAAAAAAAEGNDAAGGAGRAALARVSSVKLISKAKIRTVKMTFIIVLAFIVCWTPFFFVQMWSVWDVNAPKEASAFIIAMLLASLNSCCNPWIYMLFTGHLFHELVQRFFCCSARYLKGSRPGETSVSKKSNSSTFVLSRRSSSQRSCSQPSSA
The test is described as follows: Concentration required to displace 50% of [3H]oxytocin from rat uterine receptor.

Test [1] concerns the target Vasopressin V1a receptor (Rattus norvegicus) (UniProt P30560). Kind of test: Displacement of [3H]arginine vasopressin from rat liver (AVP-V1a site) at 10 uM. In general terms: In a radioligand displacement assay an active substance lowers the binding of a labelled ligand.
In test [2] the target is Vasopressin V2 receptor (Rattus norvegicus) (UniProt Q00788). The test is described as follows: Displacement of [3H]arginine vasopressin from rat kidney medullary (AVP-V2 site) at 10 uM. The class given is tissue-based.
Sequence of Vasopressin V2 receptor (Rattus norvegicus) (Q00788 whole entry): as the sequence (Q00788 whole entry) above

SMILES strings stand for the structures. *1 amine or outer side, *2 acyl side, *3 side chain or, on linkers, in order; H or OH if unused. Where a SMILES comes first, the peptide text is derived from it. [ ]: non-standard residue; d: D form. X1 = C=CCN([C@H](Cc1ccccc1)C(=O)[*:2])[*:1]; Piz(1,6-dehydro) = O=C(O)[C@@H]1CCC=NN1; dPiz(1,6-dehydro) = O=C(O)[C@H]1CCC=NN1; d1Nal = N[C@H](Cc1cccc2ccccc12)C(=O)O; dNMeH = CN[C@H](Cc1c[nH]cn1)C(=O)O; dNMeF = CN[C@H](Cc1ccccc1)C(=O)O; Pip = O=C(O)[C@@H]1CCCCN1; dPip = O=C(O)[C@H]1CCCCN1; NMeA = CN[C@@H](C)C(=O)O; Nle = CCCC[C@H](N)C(=O)O; Orn = NCCC[C@H](N)C(=O)O; dNMeA = CN[C@H](C)C(=O)O

Sequence of Vasopressin V1a receptor (Rattus norvegicus) (P30560 whole entry, looked up): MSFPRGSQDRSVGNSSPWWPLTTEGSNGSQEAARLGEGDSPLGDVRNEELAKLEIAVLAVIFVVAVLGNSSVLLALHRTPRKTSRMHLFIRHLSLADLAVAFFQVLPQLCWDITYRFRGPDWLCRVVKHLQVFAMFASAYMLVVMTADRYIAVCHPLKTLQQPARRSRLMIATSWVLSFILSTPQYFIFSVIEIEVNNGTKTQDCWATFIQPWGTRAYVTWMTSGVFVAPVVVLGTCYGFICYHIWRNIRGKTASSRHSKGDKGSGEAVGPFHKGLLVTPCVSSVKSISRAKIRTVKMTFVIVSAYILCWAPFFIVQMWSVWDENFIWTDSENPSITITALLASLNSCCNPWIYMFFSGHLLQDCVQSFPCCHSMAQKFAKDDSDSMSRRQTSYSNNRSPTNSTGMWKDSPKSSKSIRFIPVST
Sequence of Vasopressin V1a receptor (P30560 whole entry): as the sequence (P30560 whole entry, looked up) above

A word on the IC50: it is the concentration needed to halve the response being measured. Turning to `CC[C@H](C)[C@@H]1NC(=O)[C@@H](Cc2ccccc2)NC(=O)[C@@H]2CCCN2C(=O)[C@@H](CCCCN)NC(=O)[C@@H]2CCCCN2C(=O)[C@H]2CCCCN2C1=O` (cyclo(I[dPip][Pip][dK]P[dF])), the IC50 on Vasopressin V1a receptor is 1100 nM; on Vasopressin V2 receptor, 7400 nM; on Oxytocin receptor it was 410 nM.
A word on the inhibition: it is the change of the read-out against control, counted positive when it falls. Higher therefore signals strong suppression. For the molecule `CC[C@H](C)[C@@H]1NC(=O)[C@@H](Cc2ccccc2)NC(=O)[C@@H]2CCCN2C(=O)[C@H](Cc2ccccc2)N(C)C(=O)[C@H](C)N(C)C(=O)[C@H]2CCCCN2C1=O`, the figures for the inhibition in test [1] and in test [2] were 25% and 34%, respectively.
Turning to `CCCC[C@@H]1NC(=O)[C@@H](Cc2c[nH]c3ccccc23)NC(=O)[C@@H]2CCCN2C(=O)[C@@H](Cc2c[nH]cn2)NC(=O)[C@@H]2CCCCN2C(=O)[C@H]2CCCCN2C1=O` (cyclo([Nle][dPip][Pip][dH]P[dW])), the 50% inhibitory concentration (IC50) on Vasopressin V1a receptor is 1300 nM; at Vasopressin V2 receptor, 1700 nM.
As to `C[C@@H]1NC(=O)[C@@H](Cc2ccccc2)NC(=O)[C@@H]2CCCN2C(=O)[C@H](Cc2ccccc2)N(C)C(=O)[C@@H]2CCCCN2C(=O)[C@H]2CCCCN2C1=O`, the inhibition came to 3% in test [1] and 2% in test [2].
`CC[C@H](C)[C@@H]1NC(=O)[C@@H](Cc2ccccc2)NC(=O)[C@@H]2CCCN2C(=O)[C@@H](Cc2ccccc2)N(C)C(=O)[C@@H]2CCCCN2C(=O)[C@@H](C)N(C)C1=O` (cyclo(I[dNMeA][Pip][dNMeF]P[dF])): the inhibition was 20% in test [1] and 17% in test [2]. The molecule further showed a half-maximal inhibitory concentration (IC50) at Oxytocin receptor of 1500 nM.
As for `CC[C@H](C)[C@@H]1NC(=O)[C@@H](Cc2ccccc2)NC(=O)[C@@H]2CCCN2C(=O)[C@@H](Cc2ccccc2)N(C)C(=O)[C@H](Cc2c[nH]cn2)NC(=O)[C@H]2CCCCN2C1=O`, the inhibition was 66% in test [1] and 65% in test [2].
On to `CC[C@H](C)[C@@H]1NC(=O)[C@@H](Cc2cccc3ccccc23)NC(=O)[C@@H]2CCCN2C(=O)[C@@H](Cc2ccccc2)N(C)C(=O)[C@H](CCCCN)NC(=O)[C@H]2CCCCN2C1=O`, for which the half-maximal inhibitory concentration (IC50) was found to be 510 nM at Vasopressin V1a receptor, 150 nM on Vasopressin V2 receptor and 45 nM at Oxytocin receptor.
On to `CC[C@H](C)[C@@H]1NC(=O)[C@@H](Cc2ccccc2)NC(=O)[C@@H]2CCCN2C(=O)[C@@H](Cc2ccccc2)N(C)C(=O)[C@H](Cc2cnc[nH]2)NC(=O)[C@H]2CCCCN2C1=O`, for which, at Oxytocin receptor, the 50% inhibitory concentration (IC50) is 220 nM.
As to `CC[C@H](C)[C@@H]1NC(=O)[C@@H](Cc2ccccc2)NC(=O)[C@@H]2CCCN2C(=O)[C@@H](Cc2ccccc2)NC(=O)[C@@H]2CCCCN2C(=O)[C@H]2CCCCN2C1=O` (cyclo(I[dPip][Pip][dF]P[dF])), the IC50 at Vasopressin V2 receptor was 11000 nM; at Oxytocin receptor it was 340 nM.
Take `CC[C@H](C)[C@@H]1NC(=O)[C@@H](Cc2ccccc2)NC(=O)[C@@H]2CCCN2C(=O)[C@@H](Cc2ccccc2)N(C)C(=O)[C@@H]2CCCCN2C(=O)[C@H]2CCCN2C1=O` (cyclo(I[dP][Pip][dNMeF]P[dF])): the inhibition is 23% in test [1] and 43% in test [2]. The half-inhibitory concentration (IC50) on Oxytocin receptor is 540 nM.
As for `CC[C@H](C)[C@@H]1NC(=O)[C@@H](Cc2ccccc2)NC(=O)[C@@H]2CCCN2C(=O)[C@@H](Cc2ccccc2)N(C)C(=O)[C@H](CC(=O)O)NC(=O)[C@H]2CCCCN2C1=O` (cyclo(D[dNMeF]P[dF]I[dPip])), the inhibition in test [1] was 0%; in test [2], 12%. The molecule further gave an IC50 on Oxytocin receptor of 1500 nM.
For `CC[C@H](C)[C@H]1C(=O)N2CCCC[C@@H]2C(=O)N2CCCC[C@H]2C(=O)N(C)[C@H](Cc2ccccc2)C(=O)N2CCC[C@H]2C(=O)N[C@H](Cc2ccccc2)C(=O)N1C` the same measures were 18%, 19% and 25000 nM.
Take `CC[C@H](C)[C@@H]1NC(=O)[C@@H](Cc2ccccc2)NC(=O)[C@@H]2CCCN2C(=O)[C@@H](Cc2ccccc2)N(C)C(=O)[C@@H]2CCCN2C(=O)[C@H]2CCCN2C1=O` (cyclo([dNMeF]P[dF]I[dP]P)): the IC50 at Vasopressin V1a receptor came out at 3300 nM; at Vasopressin V2 receptor it was 81000 nM.
Turning to `CC[C@H](C)[C@@H]1NC(=O)[C@@H](Cc2ccccc2)NC(=O)[C@@H]2CCCN2C(=O)[C@@H](Cc2ccccc2)N(C)C(=O)[C@@H]2CCCN2C(=O)[C@H]2CCCCN2C1=O`, the values for the inhibition in test [1] and in test [2] were 33% and 39%, respectively. Moreover, on Oxytocin receptor, the IC50 came to 670 nM.
Consider `C[C@@H]1NC(=O)[C@@H](Cc2ccccc2)NC(=O)[C@@H]2CCCN2C(=O)[C@@H](Cc2ccccc2)N(C)C(=O)[C@@H]2CCCCN2C(=O)[C@H]2CCCCN2C1=O`, for which the 50% inhibitory concentration (IC50) on Oxytocin receptor came to 30000 nM.
For `CC[C@H](C)[C@@H]1NC(=O)[C@@H](Cc2ccccc2)NC(=O)[C@@H]2CCCCN2C(=O)[C@@H](Cc2ccccc2)N(C)C(=O)[C@@H]2CCCCN2C(=O)[C@H]2CCCCN2C1=O`, the inhibition in test [1] stood at 51%; in test [2], 48%.
On to `CC(C)C[C@@H]1NC(=O)[C@@H](Cc2c[nH]c3ccccc23)NC(=O)[C@@H]2CCCN2C(=O)[C@@H](Cc2c[nH]cn2)NC(=O)[C@@H]2CCCCN2C(=O)[C@H]2CCCCN2C1=O` (cyclo(L[dPip][Pip][dH]P[dW])), for which the IC50 came out at 3000 nM at Vasopressin V1a receptor and 11000 nM on Vasopressin V2 receptor.
With `CC[C@H](C)[C@@H]1NC(=O)[C@@H](Cc2c[nH]c3ccccc23)NC(=O)[C@@H]2CCCN2C(=O)[C@@H](Cc2ccccc2)N(C)C(=O)[C@H](CCCN)NC(=O)[C@H]2CCC=NN2C1=O` (cyclo(I[dPiz(1,6-dehydro)][Orn][dNMeF]P[dW])), the half-maximal inhibitory concentration (IC50) at Oxytocin receptor turned out to be 25 nM.
As to `CC[C@H](C)[C@@H]1NC(=O)[C@@H](Cc2cn(C)c3ccccc23)NC(=O)[C@@H]2CCCN2C(=O)[C@@H](Cc2cnc[nH]2)NC(=O)[C@@H]2CCCCN2C(=O)[C@H]2CCCCN2C1=O`, the IC50 on Vasopressin V1a receptor was 3700 nM; on Vasopressin V2 receptor, 1300 nM; on Oxytocin receptor, 10 nM.
In the case of `CC[C@H](C)[C@@H]1NC(=O)[C@@H](Cc2ccccc2)NC(=O)[C@@H]2CCCN2C(=O)[C@@H](Cc2ccccc2)N(C)C(=O)[C@H](CCCCN)NC(=O)[C@H]2CCCCN2C1=O`, the half-maximal inhibitory concentration (IC50) came to 2000 nM at Vasopressin V1a receptor, 1400 nM on Vasopressin V2 receptor and 160 nM on Oxytocin receptor.
In the same order, the values of `CC[C@H](C)[C@@H]1NC(=O)[C@@H](Cc2cccc3ccccc23)NC(=O)[C@@H]2CCCN2C(=O)[C@@H](Cc2cnc[nH]2)NC(=O)[C@@H]2CCCCN2C(=O)[C@H]2CCCCN2C1=O` (cyclo(I[dPip][Pip][dH]P[d1Nal])) are 750 nM, 720 nM and 8.3 nM.
In the same order, the values of `CC[C@H](C)[C@@H]1NC(=O)[C@@H](Cc2ccccc2)NC(=O)[C@@H]2CCCN2C(=O)[C@@H](Cc2ccccc2)N(C)C(=O)[C@@H]2CCCCN2C(=O)[C@H]2CCC=NN2C1=O` (cyclo(I[dPiz(1,6-dehydro)][Pip][dNMeF]P[dF])) are 3500 nM, 1200 nM and 15 nM.
Take `C=CCN1C(=O)[C@@H]2CCCCN2C(=O)[C@H]2CCCCN2C(=O)[C@H]([C@@H](C)CC)NC(=O)[C@@H](Cc2ccccc2)NC(=O)[C@@H]2CCCN2C(=O)[C@H]1Cc1ccccc1` (cyclo(I[dPip][Pip][X1]P[dF])): the values for the inhibition in test [1] and in test [2] were 45% and 77%, respectively. On Oxytocin receptor, this molecule displayed an IC50 of 190 nM.
As for `CC[C@H](C)[C@@H]1NC(=O)[C@@H](Cc2ccccc2)NC(=O)[C@@H]2CCCN2C(=O)[C@@H](Cc2ccccc2)N(C)C(=O)[C@@H]2CCCCN2C(=O)[C@H]2CCCCN2C1=O` (cyclo(I[dPip][Pip][dNMeF]P[dF])), the results for the IC50 at Vasopressin V1a receptor, on Vasopressin V2 receptor and at Oxytocin receptor were 3200 nM, 3800 nM and 200 nM, respectively.
`CC[C@H](C)[C@@H]1NC(=O)[C@@H](Cc2ccccc2)NC(=O)[C@@H]2CCCN2C(=O)[C@@H](Cc2ccccc2)N(C)C(=O)[C@H](C)N(C)C(=O)[C@H]2CCCCN2C1=O` gave a concentration for half-maximal inhibition (IC50) on Oxytocin receptor of 2700 nM.
Still for that read-out and setting: next, `CC[C@H](C)[C@@H]1NC(=O)[C@@H](Cc2ccccc2)NC(=O)[C@@H]2CCCN2C(=O)[C@@H](Cc2ccccc2)N(C)C(=O)[C@@H]2CCC=NN2C(=O)[C@H]2CCC=NN2C1=O` (cyclo(I[dPiz(1,6-dehydro)][Piz(1,6-dehydro)][dNMeF]P[dF])): 18 nM.
On to `CC[C@H](C)[C@@H]1NC(=O)[C@@H](Cc2ccccc2)NC(=O)[C@@H]2CCCN2C(=O)[C@@H](C)N(C)C(=O)[C@@H]2CCCCN2C(=O)[C@H]2CCCCN2C1=O` (cyclo(I[dPip][Pip][dNMeA]P[dF])), for which the inhibition in test [1] was 20%; in test [2], 12%. In addition, the half-maximal inhibitory concentration (IC50) at Oxytocin receptor came to 1200 nM.
On to `CC[C@H](C)[C@@H]1NC(=O)[C@@H](Cc2c[nH]c3ccccc23)NC(=O)[C@@H]2CCCN2C(=O)[C@@H](Cc2c[nH]cn2)N(C)C(=O)[C@@H]2CCCCN2C(=O)[C@H]2CCCCN2C1=O` (cyclo(I[dPip][Pip][dNMeH]P[dW])), for which, at Vasopressin V1a receptor, the IC50 worked out at 14000 nM.
For `CC[C@H](C)[C@@H]1NC(=O)[C@@H](Cc2ccccc2)NC(=O)[C@H](C)N(C)C(=O)[C@@H](Cc2ccccc2)N(C)C(=O)[C@@H]2CCCCN2C(=O)[C@H]2CCCCN2C1=O` (cyclo(I[dPip][Pip][dNMeF][NMeA][dF])), the inhibition in test [1] is 34%; in test [2], 37%. Also, the IC50 on Oxytocin receptor worked out at 930 nM.
